The NIST ThermoML archive (doi:10.1016/j.jct.2016.02.015)
± gives the expanded uncertainty stated by the source.

Experiment: excess molar enthalpy (molar enthalpy of mixing); xn = mol fraction of the nth substance listed
Details: 100 kPa, Liquid, Calvet calorimetry

Molecule `[Li]` [lithium] + [Ga] has an excess molar enthalpy (873 K, x1 = 0.703) of -4.64 ± 0.191 kcal/mol, an excess molar enthalpy (873 K, x1 = 0.7734) of -3.87 ± 0.191 kcal/mol and an excess molar enthalpy (873 K, x1 = 0.8058) of -3.44 ± 0.191 kcal/mol. It also gave an excess molar enthalpy (873 K, x1 = 0.8391) of -2.92 ± 0.191 kcal/mol, an excess molar enthalpy (873 K, x1 = 0.865) of -2.51 ± 0.191 kcal/mol and an excess molar enthalpy (873 K, x1 = 0.894) of -2.03 ± 0.191 kcal/mol. For the same molecule, the excess molar enthalpy (873 K, x1 = 0.9218) was -1.53 ± 0.191 kcal/mol, the excess molar enthalpy (873 K, x1 = 0.9468) was -0.98 ± 0.191 kcal/mol and the excess molar enthalpy (873 K, x1 = 0.9801) was -0.335 ± 0.191 kcal/mol. For the same molecule, the excess molar enthalpy (992 K, x1 = 0.0908) was -1.22 ± 0.12 kcal/mol, the excess molar enthalpy (992 K, x1 = 0.1797) was -2.44 ± 0.12 kcal/mol and the excess molar enthalpy (992 K, x1 = 0.2283) was -3.06 ± 0.0956 kcal/mol. For the same molecule, the excess molar enthalpy (992 K, x1 = 0.3064) was -3.85 ± 0.0956 kcal/mol, the excess molar enthalpy (992 K, x1 = 0.3748) was -4.47 ± 0.0956 kcal/mol and the excess molar enthalpy (1039 K, x1 = 0.4284) was -4.73 ± 0.0717 kcal/mol. For the same molecule, the excess molar enthalpy (1039 K, x1 = 0.5421) was -5.07 ± 0.0717 kcal/mol, the excess molar enthalpy (1039 K, x1 = 0.652) was -4.78 ± 0.0717 kcal/mol and the excess molar enthalpy (1039 K, x1 = 0.7322) was -4.06 ± 0.0478 kcal/mol. The excess molar enthalpy (1039 K, x1 = 0.7709) was -3.54 ± 0.0478 kcal/mol, the excess molar enthalpy (1039 K, x1 = 0.7991) was -3.06 ± 0.0478 kcal/mol and the excess molar enthalpy (1039 K, x1 = 0.8282) was -2.68 ± 0.0478 kcal/mol.
